# Source: patent US6492360B1, “Phthalazine derivatives phosphodiesterase 4 inhibitors” (Zambon Group S.p.A., priority 1998, dated 2002)
# Counter-ions that a name gives are not always drawn.
# Biological target: PDE 4
# Assay: PDE 4 enzyme inhibition (SPA)
# Format: biochemical
# Settings: PDE 4 purified from human PMNs; cAMP 1 μM
# Method: a) Human Polymorphonuclear Leukocyte Isolation
# The polymorphonuclear leukocytes (PMNs) were isolated from peripheral blood of healthy volunteers according to Boyum A. (Scand. J. Immunol., 1976, 5th suppl., 9). Briefly, the PMNs were purified by Ficoll-Paque gradient centrifugation followed by sedimentation on dextran and the erythrocyte contamination was eliminated by hypotonic lysis.
# b) PDE 4 Enzyme Purification
# The human PMNs were suspended in TRIS/HCl buffer (10 mM, pH 7.8) containing MgCl2 (5 mM), EGTA (4 mM), mercaptoethanol (5 mM), TRITON-X100 (1%), pepstatin A (1 μM), PMSF (100 μM) and leupeptin (1 μM), and homogenised by Polytron homogeniser. The homogenate was centrifuged at 25,000×g for 30 minutes at 4° C. and the PDE 4 enzyme was purified by ion exchange chromatography using the FPLC technique according to Schudt C. et al. (Naunyn-Schmidberg's Arch. Pharmacol., 1991, 334, 682). The supernatant was seeded on a UNO Q12 column (Bio-Rad) and the enzyme was eluted by sodium acetate linear gradient from 50 mM to 1M using a flow rate of 4.5 ml/minutes. The fractions containing enzymatic activity were pooled, dialysed against water and concentrated. The PDE 4 enzyme was stored at, −20° C. in the presence of ethylene glycol (30% v/v) until the use.
# The enzyme activity was evaluated with a Scintillation Proximity Assay (SPA) kit (Amersham). The enzymatic reaction was performed in a final volume of 100 μl of TRIS/HCl buffer (50 mM, pH 7.5), MgCl2 (8.3 mM), EGTA (1.7 mM), cAMP (1 μM) and [^3H]cAMP (˜100.000 dpm) as tracer. The compounds of the invention, the reference ones or the vehicle were added at different concentrations. As reference compounds 6,7-dimethoxy-4-pyridin-4-yl-methyl)2H-phthalazin-1-one (reference 1) and 6,7-dimethoxy-4-(piperidin-4-yl-methyl)2H-phthalazin-1-one (reference 2) embraced by the general formula of the patent application EP-0 722 936 (in the name of Eisai) were used. The reaction was started by adding 1.5 μg protein and incubated for 40 minutes at 30° C. SPA beads (50 μl) containing 18 mM zinc sulphate were added to stop the reaction and after 20 minutes at room temperature the radioactivity was measured using a scintillation counter.
# The IC50 value refers to the nanomolar concentration of the compound required to inhibit cyclic nucleotide hydrolysis by 50%, and it was calculated by non-linear regression analysis.
row,Compound,IC50
1,"COc1ccc2c(Cc3c(Cl)cncc3Cl)nn(S(C)(=O)=O)c(=O)c2c1 [Compound 24, 4-(3,5-Dichloro-pyridin-4-methyl)-2-methanesulfonyl-7-methoxy-2H-phthalazin-1-one]",36 ± 9 nM
2,"COc1ccc2c(c1)CN(C(=O)Cc1ccccc1)N=C2Cc1c(Cl)cncc1Cl [Compound 13, 1-[4-(3,5-Dichloro-pyridin-4-ylmethyl)-7-methoxy-1H-phthalazin-2-yl]-2-phenyl-ethanone]",12 ± 2 nM
3,"COc1ccc2c(Cc3c(Cl)cncc3Cl)nncc2c1C#CCN(C)Cc1ccccc1 [Compound 35, Benzyl-{3-[1-(3,5-dichloro-pyridin-4-ylmethyl)-6-methoxy-phthalazin-5-yl]-prop-2-ynyl}-methyl-amine dihydrochloride]",7.1 ± 0.5 nM
4,"COc1ccc2c(c1)CN(C(N)=O)N=C2Cc1c(Cl)cncc1Cl [Compound 9, 4-(3,5-Dichloro-pyridin-4-ylmethyl)-7-methoxy-1H-phthalazine-2-carboxylic acid amide]",36 ± 4 nM
5,"CCC(=O)N1Cc2cc(OC)ccc2C(Cc2c(Cl)cncc2Cl)=N1 [Compound 10, 1-[4-(3,5-Dichloro-pyridin-4-ylmethyl)-7-methoxy-1H-phthalazin-2-yl]-propan-1-one]",28 ± 4 nM
6,"COc1ccc2c(Cc3c(Cl)cncc3Cl)nncc2c1C#CCCCc1ccccc1 [Compound 32, 1-(3,5-Dichloro-pyridin-4-ylmethyl)-6-methoxy-5-(5-phenyl-pent-1-ynyl)-phthalazine]",10 ± 2 nM
7,"COc1ccc2c(Cc3c(Cl)cncc3Cl)nncc2c1C=CCCCc1ccccc1 [Compound 33, 1-(3,5-Dichloro-pyridin-4-ylmethyl)-6-methoxy-5-(5-phenyl-pent-1-enyl)phthalazine]",19 ± 3 nM
8,"FC(F)Oc1ccc2c(Cc3c(Cl)cncc3Cl)nnc(N3CCOCC3)c2c1 [Compound 55, 1-(3,5-Dichloro-pyridin-4-ylmethyl)-6-difluoromethoxy-4-morpholin-4-yl-phthalazine]",312 ± 48 nM
9,"COc1ccc2c(Cc3c(Cl)cncc3Cl)nncc2c1C#CCCCN1CCOCC1 [Compound 36, 1-(3,5-Dichloro-pyridin-4-ylmethyl)-6-methoxy-5-(5-morpholin-4-yl-pent-1-ynyl)-phthalazine dihydrochloride]",96.4 ± 7.3 nM
10,"COc1ccc2c(c1)CN(C(=O)c1ccccc1)N=C2Cc1c(Cl)cncc1Cl [Compound 12, [4-(3,5-Dichloro-pyridin-4-ylmethyl)-7-methoxy-1H-phthalazin-2-yl]-phenyl-methanone]",30 ± 8 nM
11,"COC(=O)N1Cc2cc(OC)ccc2C(Cc2c(Cl)cncc2Cl)=N1 [Compound 16, 4-(3,5-Dichloro-pyridin-4-ylmethyl)-7-methoxy-1H-phthalazine-2-carboxylic acid methyl ester]",72 ± 16 nM
12,"COc1ccc2c(Cc3c(Cl)cncc3Cl)nncc2c1C#CCO [Compound 37, 3-[1-(3,5-Dichloro-pyridin-4-ylmethyl)-6-methoxy-phthalazin-5-yl]-prop-2-yn-1-ol]",61 ± 2.4 nM
